Measured values reported in patent US5395827A, “ω-[2-(phosphonoalkyl)phenyl]-2-aminoalkanoic acids as antagonists of excitatory amino acid receptors” (priority 1993, dated 1995).

What was measured:
kainate receptors = settings: U.S. Pat. No. 4,657,899, Table I on column 13; cited from earlier work
NMDA = settings: U.S. Pat. No. 4,657,899; cited from earlier work
PTZ-induced seizures = experiment: Protection against pentylenetetrazole (PTZ)-induced seizures; type: in vivo, mouse (male CF-1); settings: for ED50: Mus musculus, ip, 0.5 h, i.p.; for ED50 / ED50 against PTZ-induced seizures, i.c.v.: 30 min before s.c. PTZ 85 mg/kg
Experimental: Animals were then placed in individual observation cages and monitored for 30 min for the appearance of clonic convulsions. Failure to observe a clonic convulsion lasting at least 5 sec during the observation period was considered evidence of anticonvulsant activity.
PTZ seizure studies were performed as described in the text.

AMPA receptor = experiment: Inhibition of AMPA-induced currents in rat brain mRNA-injected Xenopus oocytes; type: cell-based; settings: Table I; Xenopus oocytes injected with rat brain mRNA; IC50 converted by Cheng-Prusoff equation
Experimental: (§1) Defolliculated oocytes obtained from Xenopus laevis females were injected with 30-75 ng of poly (A^+) mRNA obtained from 21-day old male Sprague-Dawley rats. Oocytes are placed individually in […] of antibiotic-supplemented modified Barthes solution (MBS, containing in mM: NaCl, 88; KCl, 1.0; NaHCO3, 2.4; HEPES, 10; MgSO4, 0.82; Ca(NO3)2, 0.33) in 96-well sterile plates and cultured for 48-120 hours prior to experimentation. Oocytes are inspected every 24 hours at which time the bathing solution is replaced with fresh MBS.
(§2) For electrophysiological studies, oocytes are positioned in a small recording chamber ([…]) and superfused with antibiotic-free MBS supplemented with CaCl2 (final concentration=1.4 mM). For NMDA studies, MgSO4 is replaced with NaSO4 (0.55 mM). Oocytes are impaled with a single glass microelectrode, voltage-clamped at -60 to -70 mV, and perfused by gravity feed at a rate of 3-5 ml/min at room temperature. Drugs are dissolved in the perfusate (pH adjusted to 7.3-7.4) and perfused for 1-2 min or until the response has reached a plateau, followed by a 4 min perfusion in the absence of drug(s). Antagonists are coperfused with agonists. MBS used in NMDA assays is prepared from "glycine-free", deionized water.
(§3) Potencies to inhibit kainic acid-, AMPA- and NMDA/glycine-induced currents are determined from concentration-response curves. IC50 values and Hill coefficients are determined by analysis of indirect Hill plots. IC50 values are converted to Ki values for comparison purposes using the Cheng-Prusoff equation.

[1] = target: kainic acid (KA) receptor; experiment: Inhibition of KA-induced currents in rat brain mRNA-injected Xenopus oocytes; type: cell-based; settings: for Ki, inhibition of KA-induced currents: Table I, Xenopus oocytes injected with rat brain mRNA, IC50 converted by Cheng-Prusoff equation; for Ki: read-out: Ki values (Table I)
Experimental: as §1, §2, §3

[2] = tested on: choline acetyltransferase (ChAT), marker for striatal cholinergic interneurons; experiment: Kainic acid-induced striatal toxicity, choline acetyltransferase (ChAT) activity; type: in vivo, rat (male Sprague-Dawley)
Experimental: (§4) Kainic acid-induced lesion studies were performed using rats (male Sprague-Dawley, 200-250 g, Harlan Industries). Animals were anesthetized with Chloropent (1.5 ml/kg) and a cannula was inserted into the corpus striatum at the coordinates A 0.8, V 4.3, L 3.0 (bregma=0) using standard stereotaxic procedures. Compounds were dissolved in dH2 O and neutralized using dilute NaOH, and administered over a period of 2 min in a final volume of […]. Following an additional 2 min the cannula was withdrawn, the incision closed with woundclips, and the animals returned to their home cage for a 3 day recovery period. Kainic acid (10 nmoles) was used to induce striatal lesions. Compound XX (300 nmoles) was coadministered with kainic acid.
(§5) Following decapitation, the corpus striatum ipsiand contralateral to the injection were removed, immediately frozen on dry ice, and stored at -80° C. until assayed. The activities of choline acetyltransferase (ChAT) and glutamic acid decarboxylase (GAD), markers for striatal cholinergic and GABAergic interneurons, respectively, were determined using standard procedures to assess the extent of the lesion.
(§6) Ka-induced lesions were performed as described in the text. The results are expressed as the percentage of enzyme activity in the ipsilateral (injected) striatum relative to enzyme activity in the contralateral (uninjected) striatum. The values represent the mean+standard deviation of 4 (Example I) or 12 (vehicle) determinations.

[3] = tested on: glutamic acid decarboxylase (GAD), marker for striatal GABAergic interneurons; experiment: Kainic acid-induced striatal toxicity, glutamic acid decarboxylase (GAD) activity; type: in vivo, rat (male Sprague-Dawley)
Experimental: as §4, §5, §6

[4] = coadministered (300 nmoles) with kainic acid (10 nmoles), intrastriatal, 3 day recovery, mean+standard deviation of 4
[5] = coadministration of kainic acid with Example I
[6] = intrastriatal injection of kainic acid alone (10 nmoles)

Row | Structure (SMILES) | Ki (AMPA receptor) [µM] | Ki, inhibition of KA-induced currents [1] [µM] | Ki [1] [µM] | also measured
1 | NC(Cc1ccccc1CCP(=O)(O)O)C(=O)O (stereo not drawn) [2-amino-3-[2-(2-phosphonoethyl)phenyl]propanoic acid] | – | – | – | binding affinity for kainate receptors (in words) (kainate receptors): very low binding affinity; NMDA antagonism (in words) (NMDA): antagonists of NMDA
2 | NC(Cc1ccccc1CCCP(=O)(O)O)C(=O)O (stereo not drawn) [2-amino-3-[2-(3-phosphonopropyl)phenyl]propanoic acid] | – | – | – | binding affinity for kainate receptors (in words) (kainate receptors): very low binding affinity; NMDA antagonism (in words) (NMDA): antagonists of NMDA
3 | NC(Cc1ccccc1CP(=O)(O)O)C(=O)O (stereo not drawn) [2-amino-3-[2-phosphonomethylphenyl]propanoic acid] | – | – | – | binding affinity for kainate receptors (in words) (kainate receptors): very low binding affinity; NMDA antagonism (in words) (NMDA): antagonists of NMDA
4 | NC(CCCc1ccccc1CP(=O)(O)O)C(=O)O (stereo not drawn) [2-amino-5-[2-phosphonomethylphenyl]pentanoic acid] | – | – | – | binding affinity for kainate receptors (in words) (kainate receptors): very low binding affinity; NMDA antagonism (in words) (NMDA): antagonists of NMDA
5 | O=C(O)C1CN(CCCP(=O)(O)O)CCN1 (stereo not drawn) [CPP, reference compound] | – | – | – | ED50 (PTZ-induced seizures): 7.3 mg/kg; ED50 against PTZ-induced seizures, i.c.v. (PTZ-induced seizures; i.c.v.): 0.15 nmol
6 | O=c1[nH]c2cc([N+](=O)[O-])c([N+](=O)[O-])cc2[nH]c1=O [DNQX, reference compound] | 0.25 | 0.1 | – | –
7 | Cc1ccc(CCP(=O)(O)O)c(C[C@H](N)C(=O)O)c1 [Example 1, 5-Methyl-2-(2-phosphonoethyl)phenylalanine] | 13 | 11 | < 100 | ChAT, % Activity of Contralateral Striatum [2, 4]: 98 ± 6%; reduction in ChAT activity [2, 5]: 2%; ED50 (PTZ-induced seizures): 98 mg/kg; potency relative to CPP against PTZ-induced seizures (PTZ-induced seizures; i.c.v.): ~2 times; ED50 against PTZ-induced seizures, i.c.v. (PTZ-induced seizures; i.c.v.): 0.09 nmol; protection against PTZ-induced seizures (in words) (PTZ-induced seizures; mouse, in vivo): dose-dependent protection against PTZ-induced seizures; effect against PTZ-induced seizures following systemic administration (in words) (PTZ-induced seizures; systemic (i.p.) administration, compared with CPP): effective following systemic administration, but was less potent than CPP; GAD, % Activity of Contralateral Striatum [3, 4]: 88 ± 17%; reduction in GAD activity [3, 5]: 12%
8 | CCc1ccc(CCP(=O)(O)O)c(C[C@H](N)C(=O)O)c1 [Example 2, 5-Ethyl-2-(2-phosphonoethyl)phenylalanine] | 50 | 17 | < 100 | –
9 | N[C@@H](Cc1cc(Br)ccc1CCP(=O)(O)O)C(=O)O [Example 3, 5-Bromo-2-(2-phosphonoethyl)phenylalanine] | 61 | 10 | < 100 | –
10 | N[C@@H](Cc1cc(Cl)ccc1CCP(=O)(O)O)C(=O)O [Example 4, 5-Chloro-2-(2-phosphonoethyl)phenylalanine] | 48 | 15 | < 100 | –
11 | N[C@@H](Cc1cc(F)ccc1CCP(=O)(O)O)C(=O)O [Example 5, 5-Fluoro-2-(2-phosphonoethyl)phenylalanine] | 167 | 68 | < 100 | –
12 | N[C@@H](Cc1cc(I)ccc1CCP(=O)(O)O)C(=O)O [Example 6, 5-Iodo-2-(2-phosphonoethyl)phenylalanine] | 16 | 3.6 | < 100 | –
13 | Cc1cc(C)c(CCP(=O)(O)O)c(C[C@H](N)C(=O)O)c1 [Example 7, 3,5-Dimethyl-2-(2-phosphonoethyl)phenylalanine] | 39 | 12 | – | –
14 | CC(C)(C)c1ccc(CCP(=O)(O)O)c(C[C@H](N)C(=O)O)c1 [Example 10, 5-t-Butyl-2-(2-phosphonoethyl)phenylalanine] | – | 29 | – | –
15 | N[C@@H](Cc1cc(-c2ccccc2)ccc1CCP(=O)(O)O)C(=O)O [Example 11, 5-Phenyl-2-(2phosphonoethyl)-phenylalanine] | – | 76 | < 100 | –
16 | Cl.N[C@@H](Cc1cc(C2CCCCC2)ccc1CCP(=O)(O)O)C(=O)O [Example 12, 5-Cyclohexyl-2-(2-phosphonoethyl) phenylalanine hydrochloride] | – | 139 | – | –
17 | Cc1cccc(C[C@H](N)C(=O)O)c1CCP(=O)(O)O [Example 15, 3-Methyl-2-(2-phosphonoethyl)phenylalanine] | – | > 100 | – | –
18 | Cl.N[C@@H](Cc1cccc(-c2ccccc2)c1CCP(=O)(O)O)C(=O)O [Example 16, 3-Phenyl-2-(2-phosphonoethyl) phenylalanine hydrochloride] | – | 83 | – | –
19 | CCOC(=O)[C@@H](N)Cc1cc(C)ccc1CCP(=O)(O)O [Example 17, 5-Methyl-2-(2-phosphonoethyl)phenylalanine ethyl ester] | – | > 100 | – | –
20 | N[C@@H](Cc1ccc([N+](=O)[O-])cc1CCP(=O)(O)O)C(=O)O [Example 22, 4-Nitro-2-(2-phosphonoethyl)phenylalanine] | – | 13 | – | –
21 | C=C(C)[C@H]1CN[C@H](C(=O)O)[C@H]1CC(=O)O [kainic acid, reference compound] | – | – | – | reduction in ChAT activity [2, 6]: 68%; reduction in GAD activity [3, 6]: 55%
